# Patent publication US6878689B2, “Preventives or remedies for heart failure” (Kaken Pharmaceutical Co., Ltd., priority 2000, dated 2005)
# Where a SMILES comes first, the peptide text is derived from it. [ ]: non-standard residue; d: D form. d2Nal = N[C@H](Cc1ccc2ccccc2c1)C(=O)O
# Tested on: anesthetized open-chest rabbits
# Assay: Effects of intravenously administered pralmorelin on cardiac function of anesthetized open-chest rabbit
# Assay type: in vivo
# Protocol: [Test Example 2] Effects of Intravenously Administered Pralmorelin on the Cardiac Function of Rabbit
# The effects of pralmorelin on cardiac function were evaluated by measuring various parameters [blood pressure, heart rate, systolic left ventricular pressure (LVPsys), and maximal positive dP/dt (+dP/dtmax) obtained by differentiating the waveform of left ventricular pressure (LVP)]. The value of the maximal positive dP/dt for the left ventricular pressure (+dP/dtmax) is particularly important to determine if the cardiotonic action is sufficient to treat acute heart failure. • 1. Test Substance and Reagent • 1) Test Substance
# Pralmorelin dihydrochloride (hereunder referred to as KP-102) (prepared by the method described in WO 9304081) was dissolved in distilled water for injection to prepare a 1.5 mg/mL solution. • 2) Control
# Male NZW-strain rabbits (Kitayama Labes) weighing about 2 kg were used in the experiment. After arrival, the animals were allowed to eat a solid meal (Labo R Stock, Oriental Yeast Co., Ltd.) and drink water in a room at a temperature of 20±2° C. and at a humidity of 55±15% under 12-hr light/ dark cycles (from 7:00 to 19:00); the animals were kept under these conditions for at least 6 days before use. • 3. Test Method • 1) Measuring the Cardiac Function of Anesthetized Open-Chest Rabbit
# Rabbits were anesthetized by administering 30 mg/kg of sodium pentobarbital into the auricular vein at a slow speed with attention to their breathing. The animals were then fixed in supine position and an endotracheal cannula was inserted. Under artificial respiration (tidal volume, 25 mL/breath; ventilation frequency, 45 breaths/min: SN-480-7 of Shinano Seisakusyo), the chest of each animal was opened by midline incision and the pericardium was incised to expose the heart. The left ventricular pressure (LVP) was measured with a pressure transducer (TP-300T, Nihon Kohden) and a pressure amplifier (AG-610G, Nihon Kohden) as a cannula with syringe was inserted from the cardiac apex into the left ventricle. The waveform of LVP was differentiated with a differentiator unit (ED-601, Nihon Kohden) to determine the maximal positive dP/dt(+dP/dtmax), which was used as an index for cardiac contractility. Blood pressure was measured with a pressure amplifier (AP-610G, Nihon Kohden) via a pressure transducer (TP-300T, Nihon Kohden) connected to a cannula inserted into the left femoral artery. Heart rate was measured with a cardiotachometer (AT-601G, Nihon Kohden) that was driven by counting the pulse waves of LVP. The parameters mentioned above were recorded on a recorder (TA-11, Gould). A cannula was inserted into the left femoral vein so as to assist in the administration of the test substance. The rectum temperature of each animal was controlled at 39° C. with a body temperature controller (TK-43, Asahi Denshi). The anesthetic was added as required but additional anesthetization should be avoided during the measurements. • 2) Groups
# After each parameter stabilized, distilled water (0.2 mL/kg) was administered over one minute with an infusion pump (FP-W-100, Toyo Sangyo K.K.) and observations were made for 5 minutes after the administration to see whether the vehicle would have no effect. About 5 minutes after the administration of distilled water, the test substance was administered with an infusion pump in a volume of 0.2 mL/kg over one minute according to the grouping method specified above. Each hemodynamic parameter was measured both before administration and 1, 3, 5, 10, 15, 20 and 25 minutes after administration and the percent changes from the basal values were calculated. In some animals, measurement was conducted until 40 minutes after the administration of the test substance. • 4. Statistical Analysis
# The results were each expressed by mean ± standard deviation. Any difference between groups was tested by repeated measures ANOVA (analysis of variance); The significance level was set at 5%. • 5. […]
# [1] = 300 μg/kg i.v. over one minute, n=4, p<0.01 vs control
structure (smiles),measurement,setting,value
"C[C@H](NC(=O)[C@@H](Cc1ccc2ccccc2c1)NC(=O)[C@@H](C)N)C(=O)N[C@@H](Cc1c[nH]c2ccccc12)C(=O)N[C@H](Cc1ccccc1)C(=O)N[C@@H](CCCCN)C(N)=O [KP-102, D-alanyl-3-(naphthalen-2-yl)-D-alanyl-L-alanyl-L-tryptophyl-D-phenylalanyl-L-lysinamide] (H-[dA][d2Nal]AW[dF]K-NH2)",overall effect on heart rate,300 μg/kg i.v.,little affected
same,time until blood pressure baseline value practically restored,300 μg/kg i.v.,~25 min
same,"Maximum increase in +dP/dtmax, of the baseline value",[1],22%
same,"Maximum increase in LVPsys, of the baseline value",[1],13%
same,drop in heart rate,"300 μg/kg i.v., 3 minutes after the administration",2%
same,increase in heart rate,"300 μg/kg i.v., 15 minutes after the administration",1%
same,increase in heart rate,"300 μg/kg i.v., 25 minutes after the administration",2%
same,period of peak of cardiotonic action,"300 μg/kg i.v., LVPsys and +dP/dtmax",5 to 10 min
same,time until baseline values of LVPsys and +dP/dtmax restored,"300 μg/kg i.v., one case with extended monitoring",≤ 40 min
same,effect on mean blood pressure,"300 μg/kg i.v., p<0.05 vs control",significant rise of blood pressure
